Columns and labels:
UCP1 knockout mice = assay: Indirect calorimetry, heat production after i.p. injection in UCP1 knockout mice; format: in vivo, Mus musculus; conditions: 0.5 mg/kg i.p., 27° C., 60 minutes, p=0.482 (FIG. 6B, 6C)
Method: (§1) Indirect calorimetric measurements in mice were performed using an open flow respirometry system (Phenomaster, TSE Systems, Bad Homburg/Germany). All animals were kept at room temperature or cold-acclimated at 4° C. for 4 days as indicated in the results section. For the gas exchange measurement (O2 consumption and CO2 production) mice were placed individually in metabolic cages (type I, 3 liter volume) without food and water and transferred to a climate cabinet (TPK 600, Feutron, Greiz/Germany). The air was continuously pulled through the cages at a flow rate of 33 l/h. For gas analysis a subsample was dried in a cooling trap and analyzed for gas exchange. Mice in the cabinet were preconditioned to 30° C. and the basal metabolic rate (BMR) in the post-absorptive state was measured between 8:00 a.m.-12:00 p.m. The O2 consumption and CO2 production of each mouse was analyzed every 5 min over a period of 1 min. […] After injection the O2 consumption and CO2 production rate of each mouse was recorded for 45-60 min with high-resolution recordings at 10 sec intervals. […] Respiratory exchange ratios (RER) and heat production (HP) were calculated from the following formula: (RER=CO2 production/O2 consumption) and (HP[mW]=(4.44+1.43*respiratory exchange ratio)*oxygen consumption [ml/h]).

wildtype mice = assay: Indirect calorimetry, heat production after i.p. injection in wildtype mice; format: in vivo, Mus musculus; conditions: 0.5 mg/kg i.p., 27° C.
Method: as §1

fasted mice = assay: Food intake on refeeding of fasted wildtype mice; format: in vivo, Mus musculus; conditions: mice fasted 18 h, 5 nmol i.p. before refeeding, p=0.0181 (FIG. 7)
Method: For the measurement of food intake, a feeding-drinking-activity (FDA) device was used (TSE Systems, Bad Homburg/Germany). During the measurement mice were single-housed in type-III cages. Mice were habituated to the new cage environment and received every morning at 10 a.m. a single daily intraperitoneal (i.p.) PBS-injection for four days ahead of the experiment start. The body weight of the mice was measured every day. On day four day of habituation the food was removed from the cages at 5 p.m., and the mice were food deprived over night with ad libitum access to water. On the next morning, mice were i.p. injected with either PBS as control or secretin (rat, Tocris, Art Nr 1919). The latter was given in different doses. Subsequently the mice were refed ad libitum while monitoring food intake during the following 72 hours. […] Food intake was calculated from the decrease in feeder weight. The results were exported into a spreadsheet calculation table (Excel, Microsoft) and analyzed with a software package for statistics and graphics (GraphPad Prism 4.0, GraphPad Software, San Diego, USA).
Next to thermogenesis, brown fat has been proposed to function in the thermoregulatory control of feeding. […] Just before refeeding, mice were intra-peritoneally injected with 5 nmol secretin solved in PBS, or PBS as the vehicle control, and food intake was monitored for the following three days.

UCP1 expression = assay: UCP1 mRNA expression (qRT-PCR) in primary adipocytes from inguinal white adipose tissue; format: cell-based, Mus musculus; conditions: 0.1 μM secretin or 0.5 μM isoproterenol, 6 hours, normalized to TFIIB (FIG. 4A)
Method: For culturing primary adipocytes male 129S1/SvImJ mice ([…] or UCP1-KO mice and wildtype littermates) at the age of 5-6 weeks were used for the dissection of inguinal and epidydimal white adipose tissue and interscapular brown adipose tissue depots. The tissue was carefully minced and treated with collagenase for 45 min at 37° C. The homogenate was filtered through a 250 μm nylon mesh and centrifuged at 500 g to collect the stromal vascular fraction (SVF). The SVF cell pellet was rinsed and seeded into XF96 V3-PS cell culture microplate (Seahorse Bioscience). After reaching confluency, induction medium containing 10% fetal bovine serum (FBS), 0.5 mM isobutylmethylxanthine, 125 nM indomethacin, 1 mM dexamethasone, 850 nM insulin and 1 nM T3 was added. […] Respiration was measured on day 7 of differentiation. […] RNA was eluted in 50 μl nuclease-free water and RNA concentration was determined spectrophotometrically (Infinite 200 PRO NanoQuant, Tecan, Männedorf/Switzerland). Reverse transcription into cDNA was performed with 500 ng RNA in a final volume of 10 μl (Quantitect Reverse Transcription Kit, Quiagen, Hilden/Germany). qRT-PCR was conducted on 384 well plates in a total volume of 12.5 μl comprising 6.25 μl SensiMix SYBR No-ROX (Bioline, London/UK), 250 nM forward and reverse primers, and 1 μl template cDNA (LightCycler 480 System, Roche Diagnostics, Rotkreuz/Switzerland). […]

secretin
heat production and its AUC versus PBS (UCP1 knockout mice): no difference | AUC of heat production versus PBS (wildtype mice; 129/S6 wildtype mice, 45 minutes, basal subtracted, p=0.001 (FIG. 5B)): significant increase in the AUC | AUC of heat production versus PBS (wildtype mice; wildtype mice of 129/S1-UCP1 knockout strain, 60 minutes, p=0.002 (FIG. 6C)): higher AUC | food intake during the first two hours of refeeding versus PBS (fasted mice): significant inhibition of food intake | UCP1 mRNA expression in white adipocytes versus PBS (UCP1 expression): increased the expression of UCP1

Reference: US20200179488A1, “Secretin Receptor Agonists to Treat Diseases or Disorders of Energy Homeostasis” (Technische Universität München, priority 2016, published 2020)
